Test results from patent US12552771B2, “Carboxylic acid containing azetidinyl compounds for the treatment of neurodegenerative diseases” (Celgene Corporation, priority 2021, dated 2026).

Molecular target: T1, S1P5 receptors (Homo sapiens, UniProt Q9H228)
T1 construct: expressed in transfected cells; host or cells: CHO cells (membranes)
Assay: [35S]-GTPγS binding assay with CHO-S1P5 receptor membranes
Assay type: biochemical
Conditions: membranes of CHO cells expressing recombinant S1P5 receptors; measure of S1P5 agonism
Summary of the method: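 Membranes from CHO cells expressing recombinant S1P5 were preincubated for 30 min at RT with compound, GDP and WGA SPA beads. The buffer was 20 mM HEPES, 10 mM MgCl2, 100 mM NaCl, 1 mM EDTA, 0.1% fatty-acid-free BSA and 30 μg/mL saponin, pH 7.4. [35S]GTPγS (200 pM final) was added for 40 min, and bound radioactivity read as agonism; S1P was the control.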

T1 sequence (Q9H228 whole entry): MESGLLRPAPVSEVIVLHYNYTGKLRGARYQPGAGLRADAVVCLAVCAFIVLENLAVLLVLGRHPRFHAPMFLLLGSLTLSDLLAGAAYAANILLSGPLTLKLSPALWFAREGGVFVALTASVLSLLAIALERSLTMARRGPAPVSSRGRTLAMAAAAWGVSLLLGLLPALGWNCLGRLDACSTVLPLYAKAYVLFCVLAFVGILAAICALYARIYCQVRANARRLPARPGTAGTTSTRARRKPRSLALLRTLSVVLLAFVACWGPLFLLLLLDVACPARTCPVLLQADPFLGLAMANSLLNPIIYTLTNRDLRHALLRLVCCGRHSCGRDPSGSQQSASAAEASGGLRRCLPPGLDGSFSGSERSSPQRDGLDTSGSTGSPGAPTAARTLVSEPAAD

Row | Compound | EC50
1 | Cc1cc(C2CN(c3c(Cl)cccc3Cl)C2)cc(C)c1CN1CC[C@@H](C(=O)O)C1 [Compound 60, (R)-1-(4-(1-(2,6-dichlorophenyl)azetidin-3-yl)-2,6-dimethylbenzyl) pyrrolidine-3-carboxylic acid] | ≤ 0.01 µM
2 | O=C(O)C1CCN(Cc2ccc(C3CN(c4ccc(C5CC5)cc4)C3)cc2)CC1 [Compound 43, 1-(4-(1-(4-cyclopropylphenyl)azetidin-3-yl)benzyl)piperidine-4-carboxylic acid] | 1 to 10 µM
3 | O=C(O)C1CCN(C2CCc3cc(C4CN(c5c(Cl)cccc5Cl)C4)ccc32)C1 (centres unmarked) [Compound 7, 1-(5-(1-(2,6-dichlorophenyl)azetidin-3-yl)-2,3-dihydro-1H-inden-1-yl)pyrrolidine-3-carboxylic acid] | ≤ 0.01 µM
4 | Cc1cc(C2CN(c3c(C)cccc3C#N)C2)cc(C)c1CN1CCC(C(=O)O)CC1 [Compound 74, 1-(4-(1-(2-cyano-6-methylphenyl)azetidin-3-yl)-2,6-dimethylbenzyl)-piperidine-4-carboxylic acid] | ≤ 0.01 µM
5 | Cc1cc(C2CN(c3c(C)cccc3F)C2)cc(C)c1CN1CCC(C(=O)O)CC1 [Compound 66, 1-(4-(1-(2-fluoro-6-methylphenyl)azetidin-3-yl)-2,6-dimethylbenzyl)-piperidine-4-carboxylic acid] | ≤ 0.01 µM
6 | O=C(O)C1CCN(Cc2ccc(C3CN(c4ccccc4)C3)cc2)CC1 [Compound 39, 1-(4-(1-phenylazetidin-3-yl)benzyl)piperidine-4-carboxylic acid] | 1 to 10 µM
7 | O=C(O)C1CCN(C2CCc3cc(N4CC(c5ccccc5F)C4)ccc32)CC1 (single isomer, unassigned) [Compound 10a, 1-(5-(3-(2-fluorophenyl)azetidin-1-yl)-2,3-dihydro-1H-inden-1-yl)piperidine-4-carboxylic acid] | 0.01 to 0.1 µM
8 | Cc1cc(C2CN(c3ccccc3F)C2)cc(C)c1CN1CCC(C(=O)O)CC1 [Compound 46, 1-(4-(1-(2-fluorophenyl)azetidin-3-yl)-2,6-dimethylbenzyl)piperidine-4-carboxylic acid] | 0.01 to 0.1 µM
